Assay results as given in patent publication US6734139B1, “N-aryl-uracile-based herbicides” (priority 1999, dated 2004).
Values joined by “and” are separate entries in the source; they are usually repeats but may differ in a detail not shown here. Equal values may be shown once.

What was measured:
Format in all cases: in vivo
Solanum = assay: Post-emergence test (herbicidal action, Colby): Solanum
Excerpt: (§1) The expected action for a given combination of two herbicides can be calculated as follows (cf. COLBY, S. R.: “Calculating synergistic and antagonistic responses of herbicide combinations”, Weeds 15, Pages 20-22, 1967):
(§2) If the actual damage exceeds the calculated value, the combination has a superadditive effect, that is to say a synergistic effect.
(§3) To produce a suitable preparation of active compound, 1 part by weight of active compound is mixed with the stated amount of solvent, the stated amount of emulsifier is added and the concentrate is diluted with water to the desired concentration. Formulated products are dissolved in water and then diluted with water to the desired concentration.
(§4) The solutions of the other mixing components (active compounds or safeners) are prepared analogously. The separately prepared solutions of the various mixing components are then combined and, if appropriate, additional substances (formulation auxiliaries, additives, etc.) are added and, if appropriate, water is added to prepare the desired dilution.
(§5) After three weeks, the degree of damage to the plants is rated in % damage in comparison to the development of the untreated control. The figures denote
(§6) 0%=no effect/no damage (like untreated control)

Galium [1] = assay: Post-emergence test (herbicidal action, Colby): Galium
Matricaria [2] = assay: Post-emergence test (herbicidal action, Colby): Matricaria; conditions: 125 g of a.i./ha
Polygonum [3] = assay: Post-emergence test (herbicidal action, Colby): Polygonum; conditions: 125 g of a.i./ha
Amaranthus = assay: Post-emergence test (herbicidal action, Colby): Amaranthus
Abutilon [4] = assay: Post-emergence test (herbicidal action, Colby): Abutilon; conditions: 60 g of a.i./ha
Datura [5] = assay: Post-emergence test (herbicidal action, Colby): Datura
Veronica = assay: Post-emergence test (herbicidal action, Colby): Veronica
Excerpt: as §1, §2, §3, §4, §5, §6

Chenopodium [6] = assay: Post-emergence test (herbicidal action, Colby): Chenopodium; conditions: 60 g of a.i./ha
Ipomoea = assay: Pre-emergence test (herbicidal action, Colby): Ipomoea
Digitaria = assay: Pre-emergence test (herbicidal action, Colby): Digitaria
Polygonum [7] = assay: Pre-emergence test (herbicidal action, Colby): Polygonum
Lolium = assay: Pre-emergence test (herbicidal action, Colby): Lolium
Eriochloa = assay: Pre-emergence test (herbicidal action, Colby): Eriochloa
Datura [8] = assay: Pre-emergence test (herbicidal action, Colby): Datura
Setaria = assay: Pre-emergence test (herbicidal action, Colby): Setaria
Alopecurus = assay: Pre-emergence test (herbicidal action, Colby): Alopecurus
Cassia = assay: Pre-emergence test (herbicidal action, Colby): Cassia
Echinochloa = assay: Pre-emergence test (herbicidal action, Colby): Echinochloa
Abutilon [9] = assay: Pre-emergence test (herbicidal action, Colby): Abutilon; conditions: for pest or weed control at 30 g/ha: 30 g of a.i./ha; for pest or weed control at 30 g/ha / pest or weed control at 60 g/ha: read-out: Abutilon; for pest or weed control at 60 g/ha: 60 g of a.i./ha; for pest or weed control at 125 g/ha: 125 g of a.i./ha
Chenopodium [10] = assay: Pre-emergence test (herbicidal action, Colby): Chenopodium
weeds = assay: Pre-emergence test (herbicidal action against weeds, Colby)
Excerpt: as §1, §2
The theoretically expected activity for a given combination of three herbicides can likewise be found in the literature mentioned above.
Solvent: 2 to 3 parts by weight of acetone or N,N-dimethyl-formamide
Emulsifier: 1 part by weight of alkylaryl polyglycol ether
as §3, §4
Seeds of the test plants are sown in standard soil. After 24 hours, the soil is sprayed with the preparation of active compound such that the particular amount of active compound desired in each case is applied per unit area. The concentration of active compound in the spray liquor is chosen such that the particular amount of active compound desired in each case is applied in 500 litres of water per hectare. The containers with the test plants are kept in a greenhouse at controlled temperature and controlled illumination until evaluation.
as §5, §6

Galium [11] = assay: Pre-emergence test (herbicidal action, Colby): Galium
Bromus = assay: Pre-emergence test (herbicidal action, Colby): Bromus
Matricaria [12] = assay: Pre-emergence test (herbicidal action, Colby): Matricaria; conditions: 125 g of a.i./ha
Stellaria = assay: Pre-emergence test (herbicidal action, Colby): Stellaria
Viola = assay: Pre-emergence test (herbicidal action, Colby): Viola; conditions: 125 g of a.i./ha

SMILES: Cc1nn(-c2cc(NS(C)(=O)=O)c(Cl)cc2Cl)c(=O)n1C(F)F [sulfentrazone, 2-(2,4-dichloro-5-methylsulphonylamino-phenyl)-4-difluoromethyl-5-methyl-2,4-dihydro-3H-1,2,4-triazol-3-one]
- Solanum (Solanum; 60 g of a.i./ha): 0%
- Solanum (Solanum; 125 g of a.i./ha): 0%
- Galium (Galium [1]; 60 g of a.i./ha): 0%
- Matricaria (Matricaria [2]): 0%
- Polygonum (Polygonum [3]): 50%
- Amaranthus (Amaranthus; 60 g of a.i./ha): 90%
- Abutilon (Abutilon [4]): 0%
- Datura (Datura [5]; 60 g of a.i./ha): 0%
- Datura (Datura [5]; 125 g of a.i./ha): 0%
- Veronica (Veronica; 60 g of a.i./ha): 0%
- Veronica (Veronica; 125 g of a.i./ha): 20%
- Chenopodium (Chenopodium [6]): 60%

SMILES: CC(C)c1nn(C(=O)NC(C)(C)C)c(=O)n1N [amicarbazone, 4-amino-N-(1,1-dimethyl-ethyl)-4,5-dihydro-3-(1-methyl-ethyl)-5-oxo-1H-1,2,4-triazole-1-carboxamide]
- Ipomoea (Ipomoea; 30 g of a.i./ha): 50%
- Digitaria (Digitaria; 30 g of a.i./ha): 20%
- Digitaria (Digitaria; 60 g of a.i./ha): 60%
- Polygonum (Polygonum [7]; 60 g of a.i./ha): 80%
- Lolium (Lolium; 30 g of a.i./ha): 0%
- Eriochloa (Eriochloa; 30 g of a.i./ha): 30%
- Eriochloa (Eriochloa; 60 g of a.i./ha): 70%
- Datura (Datura [8]; 30 g of a.i./ha): 0%
- Datura (Datura [8]; 60 g of a.i./ha): 20%
- Setaria (Setaria; 30 g of a.i./ha): 20%
- Setaria (Setaria; 60 g of a.i./ha): 20% and 30%
- Alopecurus (Alopecurus; 60 g of a.i./ha): 20%
- Cassia (Cassia; 30 g of a.i./ha): 70%
- Echinochloa (Echinochloa; 60 g of a.i./ha): 0%
- pest or weed control at 30 g/ha (Abutilon [9]): 20%
- pest or weed control at 60 g/ha (Abutilon [9]): 99%
- Chenopodium (Chenopodium [10]; 30 g of a.i./ha): 50%
- Cassia (pre-emergence test) (weeds; Table A22, 60 g of a.i./ha): 80
- Datura (pre-emergence test) (weeds; Table A22, 125 g of a.i./ha): 50
- Polygonum (pre-emergence test) (weeds; Table A22, 125 g of a.i./ha): 90

SMILES: CC(C)N(C(=O)COc1nnc(C(F)(F)F)s1)c1ccc(F)cc1 [flufenacet, N-(4-fluoro-phenyl)-N-i-propyl-2-(5-trifluoromethyl-1,3,4-thiadiazol-2-yl-oxy)-acetamide]
- Galium (Galium [11]; 30 g of a.i./ha): 30%
- Bromus (Bromus; 60 g of a.i./ha): 30%
- Ipomoea (Ipomoea; 30 g of a.i./ha): 30%
- Ipomoea (Ipomoea; 60 g of a.i./ha): 30%
- Ipomoea (Ipomoea; 125 g of a.i./ha): 30%
- Digitaria (Digitaria; 30 g of a.i./ha): 80%
- Digitaria (Digitaria; 60 g of a.i./ha): 80%
- Polygonum (Polygonum [7]; 30 g of a.i./ha): 20%
- Polygonum (Polygonum [7]; 60 g of a.i./ha): 30%
- Lolium (Lolium; 60 g of a.i./ha): 80%
- Matricaria (Matricaria [12]): 60%
- Eriochloa (Eriochloa; 30 g of a.i./ha): 80%
- Datura (Datura [8]; 30 g of a.i./ha): 20%
- Datura (Datura [8]; 60 g of a.i./ha): 40%
- Setaria (Setaria; 30 g of a.i./ha): 70%
- Setaria (Setaria; 60 g of a.i./ha): 80% and 90%
- Alopecurus (Alopecurus; 60 g of a.i./ha): 70%
- Cassia (Cassia; 60 g of a.i./ha): 60%
- Echinochloa (Echinochloa; 60 g of a.i./ha): 90%
- pest or weed control at 30 g/ha (Abutilon [9]): 20%
- pest or weed control at 60 g/ha (Abutilon [9]): 20%
- pest or weed control at 125 g/ha (Abutilon [9]): 20%
- Chenopodium (Chenopodium [10]; 30 g of a.i./ha): 30%
- Chenopodium (Chenopodium [10]; 60 g of a.i./ha): 50%
- Stellaria (Stellaria; 60 g of a.i./ha): 50%
- Stellaria (Stellaria; 125 g of a.i./ha): 70%
- Chenopodium (pre-emergence test) (weeds; Table 23, 30 g of a.i./ha): 30
- Ipomoea (pre-emergence test) (weeds; Table 23, 30 g of a.i./ha): 50
- Lolium (pre-emergence test) (weeds; Table 23, 30 g of a.i./ha): 70
- Setaria (pre-emergence test) (weeds; Table 23, 30 g of a.i./ha): 70
- Chenopodium (pre-emergence test) (weeds; Table 23, 60 g of a.i./ha): 50
- Eriochloa (pre-emergence test) (weeds; Table 23, 60 g of a.i./ha): 90
- Galium (pre-emergence test) (weeds; Table 23, 60 g of a.i./ha): 40
- Setaria (pre-emergence test) (weeds; Table 23, 60 g of a.i./ha): 90
- Chenopodium (pre-emergence test) (weeds; Table A21, 60 g of a.i./ha): 50
- Ipomoea (pre-emergence test) (weeds; Table A21, 60 g of a.i./ha): 70
- Polygonum (pre-emergence test) (weeds; Table A21, 60 g of a.i./ha): 0
- Datura (pre-emergence test) (weeds; Table A21, 125 g of a.i./ha): 50
- Ipomoea (pre-emergence test) (weeds; Table A21, 125 g of a.i./ha): 80
- Polygonum (pre-emergence test) (weeds; Table A21, 125 g of a.i./ha): 30

SMILES: O=C(O)COc1ccc(Cl)cc1Cl [2,4-D, 2,4-dichloro-phenoxyacetic acid]
- Galium (Galium [1]; 86 g of a.i./ha): 0%
- Amaranthus (Amaranthus; 86 g of a.i./ha): 30%

SMILES: CCc1cccc(C)c1N(C(=O)CCl)[C@@H](C)COC [metolachlor, (S)-2-chloro-N-(2-ethyl-6-methyl-phenyl)-N-(2-methoxy-1-methylethyl)-acetamide]
- Viola (Viola): 50%
- Ipomoea (Ipomoea; 250 g of a.i./ha): 30%
- Digitaria (Digitaria; 250 g of a.i./ha): 90%
- pest or weed control at 125 g/ha (Abutilon [9]): 30%
- pest or weed control at 250 g/ha (Abutilon [9]; 250 g of a.i./ha): 30%
- Stellaria (Stellaria; 125 g of a.i./ha): 30%
- Stellaria (Stellaria; 250 g of a.i./ha): 80%

SMILES: CSc1nnc(C(C)(C)C)c(=O)n1N [metribuzin, 4-amino-6-tert-butyl-3-methylthio-1,2,4-triazin-5(4H)-one]
- Galium (Galium [11]; 60 g of a.i./ha): 0%
- Bromus (Bromus; 30 g of a.i./ha): 0%
- Ipomoea (Ipomoea; 30 g of a.i./ha): 0%
- Digitaria (Digitaria; 30 g of a.i./ha): 30%
- Digitaria (Digitaria; 60 g of a.i./ha): 80%
- Polygonum (Polygonum [7]; 60 g of a.i./ha): 40%
- Datura (Datura [8]; 30 g of a.i./ha): 20%
- Datura (Datura [8]; 60 g of a.i./ha): 30%
- Alopecurus (Alopecurus; 30 g of a.i./ha): 0%
- Echinochloa (Echinochloa; 60 g of a.i./ha): 0%
- Echinochloa (Echinochloa; 125 g of a.i./ha): 80%
- pest or weed control at 30 g/ha (Abutilon [9]): 80%
- pest or weed control at 60 g/ha (Abutilon [9]): 90%
- Chenopodium (Chenopodium [10]; 60 g of a.i./ha): 50%
- Chenopodium (pre-emergence test) (weeds; Table 23, 30 g of a.i./ha): 30
- Lolium (pre-emergence test) (weeds; Table 23, 30 g of a.i./ha): 0
- Setaria (pre-emergence test) (weeds; Table 23, 30 g of a.i./ha): 20
- Eriochloa (pre-emergence test) (weeds; Table 23, 60 g of a.i./ha): 0
- Galium (pre-emergence test) (weeds; Table 23, 60 g of a.i./ha): 20
- Ipomoea (pre-emergence test) (weeds; Table 23, 60 g of a.i./ha): 0
- Setaria (pre-emergence test) (weeds; Table 23, 60 g of a.i./ha): 80
- Cassia (pre-emergence test) (weeds; Table A26, 60 g of a.i./ha): 80
- Echinochloa (pre-emergence test) (weeds; Table A26, 60 g of a.i./ha): 30
- Matricaria (pre-emergence test) (weeds; Table A26, 60 g of a.i./ha): 60
- Avena (pre-emergence test) (weeds; Table A26, 125 g of a.i./ha): 40
- Digitaria (pre-emergence test) (weeds; Table A26, 125 g of a.i./ha): 90
- Echinochloa (pre-emergence test) (weeds; Table A26, 125 g of a.i./ha): 80
- Lolium (pre-emergence test) (weeds; Table A26, 125 g of a.i./ha): 70
- Matricaria (pre-emergence test) (weeds; Table A26, 125 g of a.i./ha): 70
- Setaria (pre-emergence test) (weeds; Table A26, 125 g of a.i./ha): 80
